# Results published in patent publication US12507720B2, “Use of anthocyanin-anionic polysaccharide complex for preventing or treating influenza virus A infection” (JBKLAB CO., LTD., priority 2019, dated 2025).
# Type: physicochemical
# Settings: pH 3
# Procedure: The amount of anthocyanin was confirmed using a spectrophotometer to confirm the stability of the complex prepared in Example 1 over time. 40 ml of the anthocyanin-alginic acid complex was centrifuged at 13000 rpm for 30 minutes, and the precipitate was dispersed in PBS (pH 3 or pH 7.4). In addition, anthocyanin was prepared by dissolving thereof in PBS (pH 3 or pH 7.4). The absorbance of the complex and anthocyanin dispersed in PBS (pH 3 or pH 7.4) was measured with a spectrophotometer at each wavelength band of 513 nm or 520 nm, respectively, and the change in the absorbance value of anthocyanin was observed.
substance,measurement,value
anthocyanin,stability (in words),stable
